# In the Kinase Knowledgebase extract (Sharma et al. 2016):
# Target: CDK2 (human) (UniProt P24941)
# Assay: Enzyme Assay
row,SMILES,IC50
1,OCCOc1ccc(F)c(Cc2c[nH]c3ncc(-c4cccnc4)cc23)c1F,≤ 10 µM
2,CCCS(=O)(=O)Nc1ccc(F)c(C(=O)c2c[nH]c3ncc(OC)cc23)c1F,≤ 10 µM
3,CCCS(=O)(=O)Nc1ccc(F)c(C(OC)c2c[nH]c3ncc(OC)cc23)c1F (centres undefined),≤ 10 µM
4,CCCC(=O)Nc1ccc(F)c(Cc2c[nH]c3ncc(-c4cccnc4)cc23)c1F,≤ 10 µM

# Target: EGFR (human) (UniProt P00533)
# Assay: not given
# Chain of EGFR (human) (P00533 whole entry, looked up): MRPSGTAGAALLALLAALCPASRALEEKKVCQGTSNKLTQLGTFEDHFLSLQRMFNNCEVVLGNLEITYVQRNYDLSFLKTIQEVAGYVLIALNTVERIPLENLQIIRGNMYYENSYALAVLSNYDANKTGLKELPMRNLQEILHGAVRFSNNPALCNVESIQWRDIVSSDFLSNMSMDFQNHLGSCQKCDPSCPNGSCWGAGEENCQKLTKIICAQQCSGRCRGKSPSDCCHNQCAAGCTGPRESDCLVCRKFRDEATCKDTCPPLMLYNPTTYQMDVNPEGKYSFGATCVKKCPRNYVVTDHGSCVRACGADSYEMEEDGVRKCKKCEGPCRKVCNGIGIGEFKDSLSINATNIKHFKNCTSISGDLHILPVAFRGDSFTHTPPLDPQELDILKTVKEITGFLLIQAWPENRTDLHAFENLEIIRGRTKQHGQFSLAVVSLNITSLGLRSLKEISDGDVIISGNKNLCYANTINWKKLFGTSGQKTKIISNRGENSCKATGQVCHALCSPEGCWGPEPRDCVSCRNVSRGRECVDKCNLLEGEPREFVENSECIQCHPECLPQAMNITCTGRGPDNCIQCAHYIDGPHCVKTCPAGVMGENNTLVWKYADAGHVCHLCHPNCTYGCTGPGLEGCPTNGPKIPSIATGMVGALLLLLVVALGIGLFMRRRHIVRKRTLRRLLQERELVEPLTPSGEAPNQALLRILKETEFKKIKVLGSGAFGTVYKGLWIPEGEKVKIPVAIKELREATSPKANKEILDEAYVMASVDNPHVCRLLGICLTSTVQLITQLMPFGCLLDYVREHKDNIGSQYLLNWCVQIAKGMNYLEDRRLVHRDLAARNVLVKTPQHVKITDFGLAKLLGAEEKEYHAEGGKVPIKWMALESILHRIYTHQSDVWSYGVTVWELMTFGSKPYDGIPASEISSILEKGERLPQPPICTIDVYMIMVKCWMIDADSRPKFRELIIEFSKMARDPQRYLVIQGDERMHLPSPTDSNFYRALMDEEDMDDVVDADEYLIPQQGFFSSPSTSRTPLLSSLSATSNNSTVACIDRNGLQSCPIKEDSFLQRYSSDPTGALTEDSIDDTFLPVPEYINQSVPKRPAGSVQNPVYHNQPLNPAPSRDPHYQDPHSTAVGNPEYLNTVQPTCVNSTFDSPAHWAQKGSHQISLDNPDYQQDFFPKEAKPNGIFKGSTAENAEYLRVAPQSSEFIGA
row,SMILES,IC50
1,O=C(c1cccc(O)c1)c1c[nH]c2ncc(Nc3ccccc3)cc12,≤ 10 µM
2,Nc1cccc(-c2cnc3[nH]cc(C(=O)c4cccc(O)c4)c3c2)c1,≤ 10 µM
3,O=C(Nc1ccc(F)c(C(O)c2c[nH]c3ncc(-c4cccnc4)cc23)c1F)OCc1ccccc1 (centres undefined),≤ 10 µM
4,CCCS(=O)(=O)Nc1ccc(F)c(C(=O)c2c[nH]c3ncc(-c4ccc(OC)cc4)cc23)c1F,≤ 10 µM
5,Nc1cccc(-c2cnc3[nH]cc(C(=O)c4cc(O)ccc4F)c3c2)c1,≤ 10 µM
6,COc1ccc(-c2cnc3[nH]cc(C#Cc4ccccc4)c3c2)cc1OC,≤ 10 µM
7,CC(=O)Nc1cccc(-c2cnc3[nH]cc(C(=O)c4cc(O)ccc4F)c3c2)c1,≤ 10 µM
8,Nc1cccc(-c2cnc3[nH]cc(C(=O)c4cccc(O)c4F)c3c2)c1,≤ 10 µM

# Target: MAPK14 (human) (UniProt Q16539)
# Assay: Inhibition of MAPK14 Kinase Activity
# Chain of MAPK14 (human) (Q16539 whole entry, looked up): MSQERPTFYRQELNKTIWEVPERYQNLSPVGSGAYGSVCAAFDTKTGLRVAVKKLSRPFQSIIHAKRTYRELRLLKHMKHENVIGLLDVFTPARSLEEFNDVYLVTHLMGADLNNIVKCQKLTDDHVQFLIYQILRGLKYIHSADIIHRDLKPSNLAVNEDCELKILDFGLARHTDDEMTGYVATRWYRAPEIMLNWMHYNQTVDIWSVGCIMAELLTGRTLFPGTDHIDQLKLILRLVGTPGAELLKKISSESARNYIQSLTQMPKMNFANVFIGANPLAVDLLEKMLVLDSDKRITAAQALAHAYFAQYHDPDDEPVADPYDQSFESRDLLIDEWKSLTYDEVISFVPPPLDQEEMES
row,SMILES,IC50
1,O=C(c1cccc(O)c1)c1c[nH]c2ncc(Nc3ccccc3)cc12,≤ 10 µM
2,Nc1cccc(-c2cnc3[nH]cc(C(=O)c4cccc(O)c4)c3c2)c1,≤ 10 µM
3,CCCS(=O)(=O)Nc1ccc(F)c(C(=O)c2c[nH]c3ncc(OC)cc23)c1F,≤ 10 µM
4,NC(=O)c1cccc(-c2cnc3[nH]cc(C(=O)c4cccc(O)c4F)c3c2)c1,≤ 10 µM
5,O=C(Nc1ccc(Cc2c[nH]c3ncccc23)cc1)Nc1ccc(Cl)c(C(F)(F)F)c1,≤ 10 µM
6,c1cc(Nc2ccc3ncsc3c2)c2cc[nH]c2n1,≤ 10 µM
7,CCCS(=O)(=O)Nc1ccc(F)c(C(=O)c2c[nH]c3ncc(Cl)cc23)c1F,≤ 10 µM
8,CS(=O)(=O)Nc1ccc(F)c(C(=O)c2c[nH]c3ncc(-c4cccc(S(C)(=O)=O)c4)cc23)c1F,≤ 10 µM
9,O=C(c1cccc(O)c1)c1c[nH]c2ncc(-c3ccsc3)cc12,≤ 10 µM
10,NC(=O)c1cccc(-c2cnc3[nH]cc(C(=O)c4cc(O)ccc4F)c3c2)c1,≤ 10 µM
11,CCS(=O)(=O)Nc1ccc(F)c(C(=O)c2c[nH]c3ncc(-c4cccnc4)cc23)c1F,≤ 10 µM
12,Nc1cccc(-c2cnc3[nH]cc(C(=O)c4cccc(Cl)c4Cl)c3c2)c1,≤ 10 µM
13,O=C(c1ccccc1F)c1c[nH]c2ncc(-c3ccsc3)cc12,≤ 10 µM
14,O=C(c1cc(O)ccc1F)c1c[nH]c2ncc(-c3cccs3)cc12,≤ 10 µM
15,O=C(c1cccc(Cl)c1Cl)c1c[nH]c2ncc(-c3cccnc3)cc12,≤ 10 µM
16,CS(=O)(=O)Nc1ccc(F)c(C(=O)c2c[nH]c3ncc(-c4cccc(S(C)(=O)=O)c4)cc23)c1,≤ 10 µM
17,O=C(O)C=Cc1cccc(-c2cnc3[nH]cc(C(=O)c4cc(O)ccc4F)c3c2)c1,≤ 10 µM
18,O=C(c1cc(O)ccc1F)c1c[nH]c2ncc(-c3ccccc3)cc12,≤ 10 µM
19,O=C(c1c(F)ccc(NCc2ccccc2)c1F)c1c[nH]c2ncc(-c3cccnc3)cc12,≤ 10 µM
20,CS(=O)(=O)c1cccc(-c2cnc3[nH]cc(C(=O)c4cccc(O)c4F)c3c2)c1,≤ 10 µM
21,Oc1cc(O)cc(Cc2c[nH]c3ncc(-c4ccsc4)cc23)c1,≤ 10 µM
22,CCc1cnc2[nH]cc(C(=O)c3cccc(OC)c3)c2c1,≤ 10 µM
23,O=C(c1cccc(O)c1F)c1c[nH]c2ncc(-c3cncnc3)cc12,≤ 10 µM

row,SMILES,IC50
1,Nc1ccc(F)c(C(=O)c2c[nH]c3ncc(-c4cccnc4)cc23)c1F,≤ 10 µM
2,Cc1ccc(S(=O)(=O)NCc2c[nH]c3ncccc23)cc1,≤ 10 µM
3,NC(=O)c1ccc(-c2cnc3[nH]cc(C(=O)c4ccccc4F)c3c2)cc1,≤ 10 µM
4,Nc1cccc(-c2cnc3[nH]cc(C(=O)c4cc(O)ccc4F)c3c2)c1,≤ 10 µM
5,Brc1ccc(C=Cc2c[nH]c3ncccc23)cc1,≤ 10 µM
6,CS(=O)(=O)Nc1ccc(Cl)c(C(=O)c2c[nH]c3ncc(-c4cccnc4)cc23)c1F,≤ 10 µM
7,O=C(c1cc(O)ccc1F)c1c[nH]c2ncccc12,≤ 10 µM
8,CS(=O)(=O)Nc1ccc(F)c(C(=O)c2c[nH]c3ncc(-c4cccnc4)cc23)c1,≤ 10 µM
9,COc1cccc(C(=O)c2c[nH]c3ncc(-c4cccc(C(N)=O)c4)cc23)c1,≤ 10 µM
10,O=C(c1cc(O)ccc1F)c1c[nH]c2ncc(Br)cc12,≤ 10 µM
11,Cc1c(O)cccc1C(=O)c1c[nH]c2ncc(-c3cccnc3)cc12,≤ 10 µM
12,O=C(Nc1ccc(F)c(C(=O)c2c[nH]c3ncc(-c4cccnc4)cc23)c1F)OCc1ccccc1,≤ 10 µM
13,CS(=O)(=O)Nc1cccc(-c2cnc3[nH]cc(C(=O)c4cc(O)ccc4F)c3c2)c1,≤ 10 µM
14,CCCS(=O)(=O)Nc1ccc(F)c(C(=O)c2c[nH]c3ncc(-c4ccccc4)cc23)c1F,≤ 10 µM
15,O=C(c1cc(O)ccc1F)c1c[nH]c2ncc(-c3cccnc3)cc12,≤ 10 µM
16,CCCS(=O)(=O)Nc1ccc(F)c(C(=O)c2c[nH]c3ncc(-c4cccnc4)cc23)c1F,≤ 10 µM
17,Cc1ccc(F)cc1C(=O)c1c[nH]c2ncc(-c3ccsc3)cc12,≤ 10 µM
18,Oc1ccc(F)c(Cc2c[nH]c3ncc(Br)cc23)c1F,≤ 10 µM
19,Cn1cc(C(F)(F)F)c(-c2ccc(S(=O)(=O)NCc3c[nH]c4ncccc34)s2)n1,≤ 10 µM
20,c1ccc2c(Cc3c[nH]c4ncccc34)cccc2c1,≤ 10 µM
21,O=C(c1cccc(O)c1F)c1c[nH]c2ncc(-c3ccccc3)cc12,≤ 10 µM
22,Cc1ccccc1C(=O)c1c[nH]c2ncc(-c3ccsc3)cc12,≤ 10 µM
23,CS(=O)(=O)Nc1cccc(-c2cnc3[nH]cc(C(=O)c4cccc(O)c4F)c3c2)c1,≤ 10 µM

row,SMILES,IC50
1,Cc1cccc(N(C)c2ccnc3[nH]ccc23)c1,≤ 10 µM
2,COc1cccc(C(=O)c2c[nH]c3ncc(-c4cccc(N)c4)cc23)c1,≤ 10 µM
3,O=C(c1cccc(O)c1F)c1c[nH]c2ncc(-c3cccnc3)cc12,≤ 10 µM
4,Fc1ccc(/C=C/c2ccnc3[nH]ccc23)cc1,≤ 10 µM
5,CS(=O)(=O)c1cccc(-c2cnc3[nH]cc(C(=O)c4cc(O)ccc4F)c3c2)c1,≤ 10 µM
6,CC(=O)Nc1cccc(-c2cnc3[nH]cc(C(=O)c4cc(O)ccc4F)c3c2)c1,≤ 10 µM
7,O=C(c1cccc(O)c1)c1c[nH]c2ncc(-c3cccs3)cc12,≤ 10 µM
8,CC(=O)Nc1cccc(-c2cnc3[nH]cc(C(=O)c4ccccc4F)c3c2)c1,≤ 10 µM
9,O=C(c1c(F)ccc(O)c1F)c1c[nH]c2ncc(-c3cccnc3)cc12,≤ 10 µM
10,Clc1ccc(Nc2ccnc3[nH]ccc23)cc1Cl,≤ 10 µM
11,Cc1c(O)cccc1C(=O)c1c[nH]c2ncc(-c3cccs3)cc12,≤ 10 µM
12,O=C(c1cccc(F)c1F)c1c[nH]c2nccc(-c3cc(F)cc(F)c3)c12,≤ 10 µM
13,Cc1nc(-c2ccnc3[nH]ccc23)no1,≤ 10 µM
14,CCCS(=O)(=O)Nc1ccc(Cl)c(C(=O)c2c[nH]c3ncc(-c4ccccc4)cc23)c1F,≤ 10 µM
15,O=C(c1cccc(O)c1)c1c[nH]c2ncc(Br)cc12,≤ 10 µM
16,COc1cccc(CCc2c[nH]c3ncc(-c4ccsc4)cc23)c1,≤ 10 µM
17,CS(=O)(=O)Nc1ccc(F)c(C(=O)c2c[nH]c3ncc(Br)cc23)c1,≤ 10 µM
18,CS(=O)(=O)Nc1cccc(-c2cnc3[nH]cc(C(=O)c4cc(NS(C)(=O)=O)ccc4F)c3c2)c1,≤ 10 µM
19,COc1cccc(C(=O)c2c[nH]c3ncc(-c4cccnc4)cc23)c1,≤ 10 µM
20,Cc1ccc(F)cc1C(=O)c1c[nH]c2ncc(-c3cccc(NS(C)(=O)=O)c3)cc12,≤ 10 µM
21,Nc1cccc(-c2cnc3[nH]cc(C(=O)c4cccc(O)c4F)c3c2)c1,≤ 10 µM
